# Legend:
# Assay type in all cases: functional
# Clonostachys rosea [1] = assay: Toxicity against Bionectria ochroleuca assessed as inhibition of conidial germination at 0.011 to 0.066 mg/ml
# Clonostachys rosea [2] = assay: Toxicity against Bionectria ochroleuca assessed as inhibition of mycelial growth at 0.011 to 0.066 mg/ml
# Clonostachys rosea [3] = assay: Toxicity against Bionectria ochroleuca I62 assessed as inhibition of mycelial growth at 0.3 to 1.8 mg/ml measured every 24 hr intervals over 192 hr
# Clonostachys rosea [4] = assay: Toxicity against Bionectria ochroleuca assessed as inhibition of mycelial growth at 0.3 to 1.8 mg/ml measured every 24 hr intervals over 192 hr
# Clonostachys rosea [5] = assay: Toxicity against Bionectria ochroleuca assessed as inhibition of conidial germination at 0.3 to 1.8 mg/ml measured every 24 hr intervals over 192 hr
# Clonostachys rosea [6] = assay: Toxicity against Bionectria ochroleuca I61 assessed as inhibition of mycelial growth at 0.3 to 1.8 mg/ml measured every 24 hr intervals over 192 hr
# Clonostachys rosea [7] = assay: Toxicity against Bionectria ochroleuca I19 assessed as inhibition of mycelial growth at 0.3 to 1.8 mg/ml measured every 24 hr intervals over 192 hr
# Clonostachys rosea [8] = assay: Toxicity against Bionectria ochroleuca I60 assessed as inhibition of mycelial growth at 0.3 to 1.8 mg/ml measured every 24 hr intervals over 192 hr
# Clonostachys rosea [9] = assay: Toxicity against Bionectria ochroleuca assessed as inhibition of conidial germination at 0.001 to 0.009 ug/ml
# Clonostachys rosea [10] = assay: Toxicity against Bionectria ochroleuca assessed as inhibition of mycelial growth at 0.001 to 0.009 ug/ml
# Clonostachys rosea [11] = assay: Toxicity against Bionectria ochroleuca assessed as inhibition of mycelial growth at 0.12 to 0.75 mg/ml measured every 24 hr intervals over 192 hr
# Clonostachys rosea [12] = assay: Toxicity against Bionectria ochroleuca assessed as inhibition of conidial germination at 0.12 to 0.75 mg/ml measured every 24 hr intervals over 192 hr
# Clonostachys rosea [13] = assay: Toxicity against Bionectria ochroleuca I62 assessed as inhibition of conidial germination at 0.12 to 0.75 mg/ml measured every 24 hr intervals over 192 hr
# Clonostachys rosea [14] = assay: Toxicity against Bionectria ochroleuca I19 assessed as inhibition of conidial germination at 0.12 to 0.75 mg/ml measured every 24 hr intervals over 192 hr
# Clonostachys rosea [15] = assay: Toxicity against Bionectria ochroleuca I61 assessed as inhibition of conidial germination at 0.12 to 0.75 mg/ml measured every 24 hr intervals over 192 hr
# Clonostachys rosea [16] = assay: Toxicity against Bionectria ochroleuca I60 assessed as inhibition of conidial germination at 0.12 to 0.75 mg/ml measured every 24 hr intervals over 192 hr
# Clonostachys rosea [17] = assay: Toxicity against Bionectria ochroleuca I60 assessed as inhibition of mycelial growth at 0.048 to 0.292 mg/ml measured every 24 hr intervals over 192 hr
# Clonostachys rosea [18] = assay: Toxicity against Bionectria ochroleuca assessed as inhibition of mycelial growth at 0.048 to 0.292 ug/ml measured every 24 hr intervals over 192 hr
# Clonostachys rosea [19] = assay: Toxicity against Bionectria ochroleuca I60 assessed as inhibition of conidial germination at 0.048 to 0.292 mg/ml measured every 24 hr intervals over 192 hr
# Clonostachys rosea [20] = assay: Toxicity against Bionectria ochroleuca I62 assessed as inhibition of conidial germination at 0.048 to 0.292 mg/ml measured every 24 hr intervals over 192 hr
# Clonostachys rosea [21] = assay: Toxicity against Bionectria ochroleuca assessed as inhibition of conidial germination at 0.048 to 0.292 ug/ml measured every 24 hr intervals over 192 hr
# Clonostachys rosea [22] = assay: Toxicity against Bionectria ochroleuca I19 assessed as inhibition of conidial germination at 0.048 to 0.292 mg/ml measured every 24 hr intervals over 192 hr
# Clonostachys rosea [23] = assay: Toxicity against Bionectria ochroleuca I62 assessed as inhibition of mycelial growth at 0.048 to 0.292 mg/ml measured every 24 hr intervals over 192 hr
# Clonostachys rosea [24] = assay: Toxicity against Bionectria ochroleuca I61 assessed as inhibition of conidial germination at 0.048 to 0.292 mg/ml measured every 24 hr intervals over 192 hr
# Clonostachys rosea [25] = assay: Toxicity against Bionectria ochroleuca I19 assessed as inhibition of mycelial growth at 0.048 to 0.292 mg/ml measured every 24 hr intervals over 192 hr
# Clonostachys rosea [26] = assay: Toxicity against Bionectria ochroleuca I61 assessed as inhibition of mycelial growth at 0.048 to 0.292 mg/ml measured every 24 hr intervals over 192 hr
smiles,measurement,setting,value
CCc1cccc(C)c1N(C(=O)CCl)[C@@H](C)COC [S-METOLACHLOR],inhibition (INH),Clonostachys rosea [1],2.2%
same,growth inhibition (GI),Clonostachys rosea [2],3.6%
O=C1C2CC=CCC2C(=O)N1SC(Cl)(Cl)Cl (stereo not drawn) [CAPTAN],growth inhibition (GI),Clonostachys rosea [3],86.2%
same,growth inhibition (GI),Clonostachys rosea [4],75%
same,inhibition (INH),Clonostachys rosea [5],61%
same,growth inhibition (GI),Clonostachys rosea [6],81.8%
same,growth inhibition (GI),Clonostachys rosea [7],81.8%
same,growth inhibition (GI),Clonostachys rosea [8],82.2%
CCCCOC(=O)[C@@H](C)Oc1ccc(Oc2ccc(C(F)(F)F)cn2)cc1 [FLUAZIFOP-P-BUTYL],inhibition (INH),Clonostachys rosea [9],2.2%
same,growth inhibition (GI),Clonostachys rosea [10],3.6%
CC12CC1(C)C(=O)N(c1cc(Cl)cc(Cl)c1)C2=O (stereo not drawn) [PROCYMIDONE],growth inhibition (GI),Clonostachys rosea [11],66%
same,inhibition (INH),Clonostachys rosea [12],59%
COC(=O)NC(=S)Nc1ccccc1NC(=S)NC(=O)OC [THIOPHANATE METHYL],growth inhibition (GI),Clonostachys rosea [11],90%
same,inhibition (INH),Clonostachys rosea [13],69.3%
same,inhibition (INH),Clonostachys rosea [14],40.8%
same,inhibition (INH),Clonostachys rosea [15],39.4%
same,inhibition (INH),Clonostachys rosea [12],31%
same,inhibition (INH),Clonostachys rosea [16],37.4%
CC1(C)C(C(=O)OC(C#N)c2cccc(Oc3ccccc3)c2)C1(C)C (stereo not drawn) [FENPROPATHRIN],growth inhibition (GI),Clonostachys rosea [17],3.93%
same,growth inhibition (GI),Clonostachys rosea [18],1%
same,inhibition (INH),Clonostachys rosea [19],10.1%
same,inhibition (INH),Clonostachys rosea [20],9.9%
same,inhibition (INH),Clonostachys rosea [21],6%
same,inhibition (INH),Clonostachys rosea [22],12.7%
same,growth inhibition (GI),Clonostachys rosea [23],10.77%
same,inhibition (INH),Clonostachys rosea [24],10.7%
same,growth inhibition (GI),Clonostachys rosea [25],8.18%
same,growth inhibition (GI),Clonostachys rosea [26],7.16%

# Source: ChEMBL document CHEMBL3044654, “Sensitivity of four isolates of Clonostachys rosea to pesticides used in the strawberry crop in Brazil” (2012)
